# Assay results published in ChEMBL document CHEMBL3045652, “Biorational glycol diesters as dietary toxins versus bioefficacy of sucrose octanoate against lepidopteran larvae” (Ind Crops Prod, 2012).
# The source made the active and inactive calls. No cut-off for these calls is given here.
# How the values were obtained:
# Helicoverpa armigera [1] = test: Insecticidal activity against second-instar larval stage of Helicoverpa armigera fed with artificial diet containing compound assessed as mortality after 7 days; format: functional; conditions: 168 h
# Helicoverpa armigera [2] = test: Insecticidal activity against second-instar larval stage of Helicoverpa armigera fed with artificial diet containing compound assessed as growth inhibition after 7 days; format: functional, organism-based; conditions: for EC50: 168 h
# Spodoptera litura [3] = test: Insecticidal activity against second-instar larval stage of Spodoptera litura fed with artificial diet containing compound assessed as growth inhibition after 7 days; format: functional, organism-based; conditions: for EC50: 168 h
# Helicoverpa armigera [4] = test: Antifeedant activity against third-instar larval stage of Helicoverpa armigera fed with artificial diet containing compound assessed as relative consumption rate at 9.88 mg/ml after 3 days (reference value: 1.88 +/- 0.14 mg/mg/day); format: functional
# Helicoverpa armigera [5] = test: Antifeedant activity against third-instar larval stage of Helicoverpa armigera fed with artificial diet containing compound assessed as efficiency index of ingested food at 9.88 mg/ml after 3 days (reference value: 52%); format: functional
# Helicoverpa armigera [6] = test: Antifeedant activity against third-instar larval stage of Helicoverpa armigera fed with artificial diet containing compound assessed as relative growth rate at 9.88 mg/ml after 3 days (reference value: 0.97 +/- 0.13 mg/mg/day); format: functional
# Spodoptera litura [7] = test: Antifeedant activity against third-instar larval stage of Spodoptera litura fed with artificial diet containing compound assessed as efficiency index of ingested food at 8.25 mg/ml after 3 days (reference value: 64.5%); format: functional
# Spodoptera litura [8] = test: Antifeedant activity against third-instar larval stage of Spodoptera litura fed with artificial diet containing compound assessed as relative consumption rate at 8.25 mg/ml after 3 days (reference value: 2.13 +/- 0.18 mg/mg/day); format: functional
# Spodoptera litura [9] = test: Antifeedant activity against third-instar larval stage of Spodoptera litura fed with artificial diet containing compound assessed as relative growth rate at 8.25 mg/ml after 3 days (reference value: 1.37 +/- 0.12 mg/mg/day); format: functional
# Spodoptera litura [10] = test: Insecticidal activity against second-instar larval stage of Spodoptera litura fed with artificial diet containing compound assessed as mortality after 7 days; format: functional; conditions: 168 h
# Spodoptera litura [11] = test: Antifeedant activity against third-instar larval stage of Spodoptera litura fed with artificial diet containing compound assessed as efficiency index of ingested food at 5.9 mg/ml after 3 days (reference value: 64.5%); format: functional
# Helicoverpa armigera [12] = test: Antifeedant activity against third-instar larval stage of Helicoverpa armigera fed with artificial diet containing compound assessed as relative growth rate at 8.21 mg/ml after 3 days (reference value: 0.97 +/- 0.13 mg/mg/day); format: functional
# Spodoptera litura [13] = test: Antifeedant activity against third-instar larval stage of Spodoptera litura fed with artificial diet containing compound assessed as relative consumption rate at 5.9 mg/ml after 3 days (reference value: 2.13 +/- 0.18 mg/mg/day); format: functional
# Helicoverpa armigera [14] = test: Antifeedant activity against third-instar larval stage of Helicoverpa armigera fed with artificial diet containing compound assessed as relative consumption rate at 8.21 mg/ml after 3 days (reference value: 1.88 +/- 0.14 mg/mg/day); format: functional
# Helicoverpa armigera [15] = test: Antifeedant activity against third-instar larval stage of Helicoverpa armigera fed with artificial diet containing compound assessed as efficiency index of ingested food at 8.21 mg/ml after 3 days (reference value: 52%); format: functional
# Spodoptera litura [16] = test: Antifeedant activity against third-instar larval stage of Spodoptera litura fed with artificial diet containing compound assessed as relative growth rate at 5.9 mg/ml after 3 days (reference value: 1.37 +/- 0.12 mg/mg/day); format: functional
# Helicoverpa armigera [17] = test: Antifeedant activity against third-instar larval stage of Helicoverpa armigera fed with artificial diet containing compound assessed as relative consumption rate at 5.16 mg/ml after 3 days (reference value: 1.88 +/- 0.14 mg/mg/day); format: functional
# Helicoverpa armigera [18] = test: Insecticidal activity against second-instar larval stage of Helicoverpa armigera assessed as increase in mortality applied as spray at 1 to 10 mg/ml after 72 hr; format: functional, organism-based
# Spodoptera litura [19] = test: Insecticidal activity against second-instar larval stage of Spodoptera litura assessed as increase in mortality applied as spray at 1 to 10 mg/ml after 72 hr; format: functional, organism-based
# Spodoptera litura [20] = test: Antifeedant activity against third-instar larval stage of Spodoptera litura fed with artificial diet containing compound assessed as relative growth rate at 3.34 mg/ml after 3 days (reference value: 1.37 +/- 0.12 mg/mg/day); format: functional
# Helicoverpa armigera [21] = test: Antifeedant activity against third-instar larval stage of Helicoverpa armigera fed with artificial diet containing compound assessed as relative growth rate at 5.16 mg/ml after 3 days (reference value: 0.97 +/- 0.13 mg/mg/day); format: functional
# Helicoverpa armigera [22] = test: Antifeedant activity against third-instar larval stage of Helicoverpa armigera fed with artificial diet containing compound assessed as efficiency index of ingested food at 5.16 mg/ml after 3 days (reference value: 52%); format: functional
# Spodoptera litura [23] = test: Antifeedant activity against third-instar larval stage of Spodoptera litura fed with artificial diet containing compound assessed as relative consumption rate at 3.34 mg/ml after 3 days (reference value: 2.13 +/- 0.18 mg/mg/day); format: functional
# Spodoptera litura [24] = test: Antifeedant activity against third-instar larval stage of Spodoptera litura fed with artificial diet containing compound assessed as efficiency index of ingested food at 3.34 mg/ml after 3 days (reference value: 64.5%); format: functional
# Spodoptera litura [25] = test: Antifeedant activity against third-instar larval stage of Spodoptera litura fed with artificial diet containing compound assessed as relative consumption rate at 8.32 mg/ml after 3 days (reference value: 2.13 +/- 0.18 mg/mg/day); format: functional
# Helicoverpa armigera [26] = test: Antifeedant activity against third-instar larval stage of Helicoverpa armigera fed with artificial diet containing compound assessed as relative growth rate at 9.82 mg/ml after 3 days (reference value: 0.97 +/- 0.13 mg/mg/day); format: functional
# Spodoptera litura [27] = test: Antifeedant activity against third-instar larval stage of Spodoptera litura fed with artificial diet containing compound assessed as relative growth rate at 8.32 mg/ml after 3 days (reference value: 1.37 +/- 0.12 mg/mg/day); format: functional
# Helicoverpa armigera [28] = test: Antifeedant activity against third-instar larval stage of Helicoverpa armigera fed with artificial diet containing compound assessed as efficiency index of ingested food at 9.82 mg/ml after 3 days (reference value: 52%); format: functional
# Spodoptera litura [29] = test: Antifeedant activity against third-instar larval stage of Spodoptera litura fed with artificial diet containing compound assessed as efficiency index of ingested food at 8.32 mg/ml after 3 days (reference value: 64.5%); format: functional
# Helicoverpa armigera [30] = test: Antifeedant activity against third-instar larval stage of Helicoverpa armigera fed with artificial diet containing compound assessed as relative consumption rate at 9.82 mg/ml after 3 days (reference value: 1.88 +/- 0.14 mg/mg/day); format: functional
# Spodoptera litura [31] = test: Antifeedant activity against third-instar larval stage of Spodoptera litura fed with artificial diet containing compound assessed as relative growth rate at 6.25 mg/ml after 3 days (reference value: 1.37 +/- 0.12 mg/mg/day); format: functional
# Spodoptera litura [32] = test: Antifeedant activity against third-instar larval stage of Spodoptera litura fed with artificial diet containing compound assessed as efficiency index of ingested food at 6.25 mg/ml after 3 days (reference value: 64.5%); format: functional
# Helicoverpa armigera [33] = test: Antifeedant activity against third-instar larval stage of Helicoverpa armigera fed with artificial diet containing compound assessed as efficiency index of ingested food at 7.15 mg/ml after 3 days (reference value: 52%); format: functional
# Helicoverpa armigera [34] = test: Antifeedant activity against third-instar larval stage of Helicoverpa armigera fed with artificial diet containing compound assessed as relative consumption rate at 7.15 mg/ml after 3 days (reference value: 1.88 +/- 0.14 mg/mg/day); format: functional
# Helicoverpa armigera [35] = test: Antifeedant activity against third-instar larval stage of Helicoverpa armigera fed with artificial diet containing compound assessed as relative growth rate at 7.15 mg/ml after 3 days (reference value: 0.97 +/- 0.13 mg/mg/day); format: functional
# Spodoptera litura [36] = test: Antifeedant activity against third-instar larval stage of Spodoptera litura fed with artificial diet containing compound assessed as relative consumption rate at 6.25 mg/ml after 3 days (reference value: 2.13 +/- 0.18 mg/mg/day); format: functional
# Helicoverpa armigera [37] = test: Antifeedant activity against third-instar larval stage of Helicoverpa armigera fed with artificial diet containing compound assessed as efficiency index of ingested food at 7.38 mg/ml after 3 days (reference value: 52%); format: functional
# Helicoverpa armigera [38] = test: Antifeedant activity against third-instar larval stage of Helicoverpa armigera fed with artificial diet containing compound assessed as relative consumption rate at 7.38 mg/ml after 3 days (reference value: 1.88 +/- 0.14 mg/mg/day); format: functional
# Spodoptera litura [39] = test: Antifeedant activity against third-instar larval stage of Spodoptera litura fed with artificial diet containing compound assessed as relative consumption rate at 5.6 mg/ml after 3 days (reference value: 2.13 +/- 0.18 mg/mg/day); format: functional
# Spodoptera litura [40] = test: Antifeedant activity against third-instar larval stage of Spodoptera litura fed with artificial diet containing compound assessed as relative growth rate at 5.6 mg/ml after 3 days (reference value: 1.37 +/- 0.12 mg/mg/day); format: functional
# Helicoverpa armigera [41] = test: Antifeedant activity against third-instar larval stage of Helicoverpa armigera fed with artificial diet containing compound assessed as relative growth rate at 7.38 mg/ml after 3 days (reference value: 0.97 +/- 0.13 mg/mg/day); format: functional
# Spodoptera litura [42] = test: Antifeedant activity against third-instar larval stage of Spodoptera litura fed with artificial diet containing compound assessed as efficiency index of ingested food at 5.6 mg/ml after 3 days (reference value: 64.5%); format: functional
smiles,measurement,setting,value
"CCCC(CC)C(=O)OCCCCCOC(=O)C(CC)CCC (centres undefined) [PENTANE-1,5-DI-(2-ETHYLHEXANOATE)]",LC50,Helicoverpa armigera [1],2000 µg/mL
same,growth inhibition (GI),Helicoverpa armigera [2],Dose-dependent effect
same,EC50,Helicoverpa armigera [2],5560 µg/mL
same,growth inhibition (GI),Spodoptera litura [3],Dose-dependent effect
same,EC50,Spodoptera litura [3],7850 µg/mL
same,Activity,Helicoverpa armigera [4],1.8 mg/mg/day
same,ECI,Helicoverpa armigera [5],40%
same,Activity,Helicoverpa armigera [6],0.72 mg/mg/day
same,ECI,Spodoptera litura [7],46%
same,Activity,Spodoptera litura [8],1.99 mg/mg/day
same,Activity,Spodoptera litura [9],1.06 mg/mg/day
same,LC50,Spodoptera litura [10],2000 µg/mL
CCCC(=O)OCC(C)OC(=O)CCC (centres undefined),ECI,Spodoptera litura [11],12%
same,LC50,Helicoverpa armigera [1],2000 µg/mL
same,Activity,Helicoverpa armigera [12],0.67 mg/mg/day
same,growth inhibition (GI),Helicoverpa armigera [2],Dose-dependent effect
same,EC50,Helicoverpa armigera [2],5670 µg/mL
same,growth inhibition (GI),Spodoptera litura [3],Dose-dependent effect
same,EC50,Spodoptera litura [3],4210 µg/mL
same,Activity,Spodoptera litura [13],1.98 mg/mg/day
same,Activity,Helicoverpa armigera [14],1.77 mg/mg/day
same,ECI,Helicoverpa armigera [15],38.2%
same,Activity,Spodoptera litura [16],1.04 mg/mg/day
same,LC50,Spodoptera litura [10],2000 µg/mL
CCCCC(=O)OCCOC(=O)CCCC [ETHYLENE GLYCOL DIPENTANOATE],Activity,Helicoverpa armigera [17],1.82 mg/mg/day
same,Activity,Helicoverpa armigera [18],Active
same,Activity,Spodoptera litura [19],Active
same,LC50,Helicoverpa armigera [1],2000 µg/mL
same,Activity,Spodoptera litura [20],0.64 mg/mg/day
same,growth inhibition (GI),Helicoverpa armigera [2],Dose-dependent effect
same,EC50,Helicoverpa armigera [2],2120 µg/mL
same,growth inhibition (GI),Spodoptera litura [3],Dose-dependent effect
same,EC50,Spodoptera litura [3],1840 µg/mL
same,Activity,Helicoverpa armigera [21],0.58 mg/mg/day
same,ECI,Helicoverpa armigera [22],31.9%
same,Activity,Spodoptera litura [23],2.09 mg/mg/day
same,ECI,Spodoptera litura [24],4%
same,LC50,Spodoptera litura [10],2340 µg/mL
"CCCCC(=O)OCCCCCOC(=O)CCCC [PENTANE-1,5-DIPENTANOATE]",Activity,Spodoptera litura [25],2.02 mg/mg/day
same,Activity,Helicoverpa armigera [26],0.66 mg/mg/day
same,LC50,Helicoverpa armigera [1],2000 µg/mL
same,Activity,Spodoptera litura [27],0.94 mg/mg/day
same,growth inhibition (GI),Helicoverpa armigera [2],Dose-dependent effect
same,EC50,Helicoverpa armigera [2],5880 µg/mL
same,growth inhibition (GI),Spodoptera litura [3],Dose-dependent effect
same,EC50,Spodoptera litura [3],5010 µg/mL
same,ECI,Helicoverpa armigera [28],37.2%
same,ECI,Spodoptera litura [29],44%
same,Activity,Helicoverpa armigera [30],1.79 mg/mg/day
same,LC50,Spodoptera litura [10],2000 µg/mL
CCCCCCCC(=O)OCC(C)OC(=O)CCCCCCC (centres undefined),Activity,Spodoptera litura [31],0.88 mg/mg/day
same,LC50,Helicoverpa armigera [1],2000 µg/mL
same,ECI,Spodoptera litura [32],18%
same,ECI,Helicoverpa armigera [33],37.9%
same,growth inhibition (GI),Helicoverpa armigera [2],Dose-dependent effect
same,EC50,Helicoverpa armigera [2],4380 µg/mL
same,Activity,Helicoverpa armigera [34],1.86 mg/mg/day
same,growth inhibition (GI),Spodoptera litura [3],Dose-dependent effect
same,EC50,Spodoptera litura [3],3820 µg/mL
same,Activity,Helicoverpa armigera [35],0.7 mg/mg/day
same,Activity,Spodoptera litura [36],2.21 mg/mg/day
same,LC50,Spodoptera litura [10],2000 µg/mL
CC(COC(=O)C(C)C)OC(=O)C(C)C (centres undefined),ECI,Helicoverpa armigera [37],30.4%
same,LC50,Helicoverpa armigera [1],2000 µg/mL
same,Activity,Helicoverpa armigera [38],1.91 mg/mg/day
same,growth inhibition (GI),Helicoverpa armigera [2],Dose-dependent effect
same,EC50,Helicoverpa armigera [2],7340 µg/mL
same,growth inhibition (GI),Spodoptera litura [3],Dose-dependent effect
same,EC50,Spodoptera litura [3],5210 µg/mL
same,Activity,Spodoptera litura [39],2.12 mg/mg/day
same,Activity,Spodoptera litura [40],1.09 mg/mg/day
same,Activity,Helicoverpa armigera [41],0.58 mg/mg/day
same,LC50,Spodoptera litura [10],2000 µg/mL
same,ECI,Spodoptera litura [42],13%
